# Data taken from patent publication US6046219A, “Method for the treatment of conditions mediated by collagen formation together with cell proliferation by application of inhibitors of protein hydroxylation” (Cornell Research Foundation, Inc., priority 1997, dated 2000).
# Entries after “also recorded” stand apart in the source; their conditions may differ.
# Key:
# [1] = tested on: protein hydroxylases; assay: Inhibition of protein hydroxylases; assay type: biochemical; conditions: no data shown
# [2] = tested on: human umbilical vein endothelial cells (HUVEC); assay: Endothelial cell proliferation (tritiated thymidine incorporation); assay type: cell-based; conditions: 24 hours
# Method: Human umbilical vein endothelial cells ("HUVEC") were treated with the specified concentrations of deferiprone (X-axis) for 24 hours prior to evaluating tritiated thymidine (3H-Tdr) incorporation into DNA for 4 hours. The results are expressed per well and the bars at each point reflect the standard error of the mean (S.E.M., n=3). Decreasing 3H-Tdr incorporation would reflect reduced endothelial cells proliferation.
# Endothelial cell proliferation was determined by essentially the same methods previously disclosed for the determination of smooth muscle proliferation. Human umbilical vein endothelial cells ("HUVEC") were isolated and subcultured in Medium 199 containing 15% fetal bovine serum ("FBS"), endothelial cell growth factor ("ECGF", 5 ng/ml), heparin (9 μg/ml), and antibiotics. The cells were plated in 96-well dishes at 1×10^4 cells per well and then allowed to attach for 24 hours. The medium was removed, and the cells were changed to media containing deferiprone at 50, 100, 200, or 500 μM. After 24 hours, tritiated thymidine was added to the wells and allowed to incorporate into the DNA for 4 hours prior to isolation of the nuclear DNA by standard methods. The results are expressed as the counts per minute ("cpm") of radioactivity per well, which is proportional to the rate of DNA synthesis during the 4 hour labelling period.
# [3] = target: T1, cellular human deoxyhypusyl hydroxylase (Homo sapiens, UniProt Q9BU89); assay: Cellular human deoxyhypusyl hydroxylase (DOHH assay, 3H-spermidine labeling); assay type: cell-based; conditions: for Deoxyhypusyl hydroxylase ID50 (cellular): cellular human enzyme, inhibitory dose that gives 50% reduction of the enzyme-mediated reaction, unit assumed
# T1 construct: endogenous in cells; host or cells: cultured human cells (smooth muscle cells, B-lymphocytes)
# T1 sequence (Q9BU89 1-302): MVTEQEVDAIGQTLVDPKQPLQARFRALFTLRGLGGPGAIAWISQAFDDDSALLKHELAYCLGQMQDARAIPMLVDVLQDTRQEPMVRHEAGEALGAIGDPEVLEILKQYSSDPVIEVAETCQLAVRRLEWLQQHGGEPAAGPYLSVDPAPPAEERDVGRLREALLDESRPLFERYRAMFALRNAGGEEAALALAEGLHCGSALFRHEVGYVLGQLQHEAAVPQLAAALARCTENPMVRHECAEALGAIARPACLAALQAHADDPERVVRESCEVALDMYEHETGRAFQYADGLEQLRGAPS
# Source text: (§1) The inhibitory action of the substances according to the invention, for example on collagen secretion or cell proliferation, can be tested in direct assays of the enzymes mediating the pivotal protein hydroxylations for these biological processes, such as prolyl 4-hydroxylase and deoxyhypusyl hydroxylase. This entails the enzymatic hydroxylation of the appropriate protein precursor, either by the cellular or the purified enzyme, in the presence or absence of compounds of Formulae (I) or (II), with concomitant determination of co-substrate utilization by these enzymes or subsequent isolation of the hydroxylated amino acid and its unhydroxylated precursor. In this manner, the inhibitory potency of any given compound can be measured in the cell-free system, in cell culture, or in tissue, and is expressed as the inhibitory dose that gives a 50% reduction of the enzyme-mediated reaction (ID50). Enzyme is tested in analogy to the method of A. Abbruzzese, H. M. Hanauske-Abel, et al., Biochem. Biophys. Acta, 1077, 159-166 (1991) and of K. Majamaa, H. M. Hanauske-Abel, et al., Eur. J. Biochem. 138, 239-245 (1984), which are hereby incorporated by reference. Table III lists the ID50 values of some of the compounds according to the invention, using purified human prolyl 4-hydroxylase and cellular human deoxyhypusyl hydroxylase as representative protein hydroxylases.
# The inhibiting effect of hydroxypyridones on the eIF-5A-hydroxylating enzyme was studied in cultured human cells (i.e. smooth muscle cells, B-lymphocytes).
# The cellular conversion of the precursor deoxyhypusine to the hydroxylated hypusine in cells was examined, after preincubation with the inhibitor for 60 minutes, by labeling the human cells with ^3 H-spermidine (5 μCi/ml) in 25 cm^2 flasks (1×10^6 cells/flask) for 24 hours prior to cell lysis, precipitation with 10% TCA containing 1 mM each of putrescine, spermidine, and spermine, and hydrolysis in 6 N HCl at 110° C. for 16 hours. The hydrolysate was analyzed for labeled amino acids on an amino acid analyzer by published methods (Park et al., J. Biol. Chem., 257:7217-7222 (1982), which is hereby incorporated by reference). The retention of purified hypusine and deoxyhypusine was determined from standards.
# [4] = target: T2, purified human prolyl 4-hydroxylase (Homo sapiens, UniProt P13674); assay: Assay of purified human prolyl 4-hydroxylase (14CO2 release from 2-oxoglutarate, cell-free); assay type: biochemical; conditions: for Prolyl 4-hydroxylase ID50 (purified): purified human enzyme, inhibitory dose that gives 50% reduction of the enzyme-mediated reaction, unit assumed
# T2 construct: made in house; host or cells: Spodoptera frugiperda insect cells (baculovirus, co-expression of α- and β-subunits)
# Method: The effect on the enzyme was determined in a cell-free system by measuring the oxidative decarboxylation of its cofactor 2-oxoglutarate via release of radiolabeled carbon dioxide in a standard reaction mixture also containing ascorbate, ferrous sulfate, and unhydroxylated peptide substrate.
# as §1
# The inhibiting effect of hydroxypyridones on the collagen-hydroxylating enzyme was studied in a cell-free system.
# Assay of purified human prolyl 4-hydroxylase
# The native α2 β2 -tetrameric enzyme was purified to homogeneity by poly(L-proline) affinity chromatography and DEAE chromatography from the supernatant of Spodoptera frugiperda insect cells cotransfected with recombinant baculovirus transfer vectors for both the human α- and β-subunits. Enzyme activity was determined by trapping of ^14 CO2 released from 2-oxo[1-^14 C][glutarate] according to the procedure of Majamaa, et al., Eur. J. Biochem., 138:239-245 (1984), which is hereby incorporated by reference. Briefly, all incubations were run for 60 minutes at 37° C. in a final volume of 1.0 ml per test sample, containing 0.1 μg enzyme, 0.1 mg heat-denatured (Pro-Pro-Gly)10 ×9 H2 O as hydroxylatable substrate, 0.1 mM 2-oxo[1-^14 C][glutarate] adjusted to 60,000 dpm by mixing with the unlabeled 2-oxoglutarate as cosubstrate, and cofactors (1.6 mM ascorbate, 0.05 mM ferrous sulfate, 0.08 mM dithiothreitol, 2 mg bovine serum albumin, 5 μL catalase). Assays are performed with only one of the active compounds at any given time.
# [5] = tested on: prolyl hydroxylase; conditions: U.S. Pat. No. 4,937,266; cited from earlier work
# [6] = orally active; established characteristics; cited from earlier work
# [7] = tested on: HUVEC; assay: Endothelial cell tube formation on Matrigel; assay type: cell-based, human; conditions: 24 hours
# Method: HUVEC form tubes when plated on Matrigel and this is a commonly used as an in vitro model of capillary formation. In the FIG. 10A, it is shown that untreated HUVEC form capillary-like tubes (ARROW) when placed on Matrigel for 24 hours.
# Endothelial cell tube formation was determined by plating HUVEC on a thick Matrigel (Becton Dickinson Labware) gel at a density of 5×10^4 cells per well of 24 well dish. Deferiprone was incubated with the cells for 30 minutes in solution prior to applying the cells to the Matrigel. The cells were added to the Matrigel-coated well, and, then 4 hours and 24 hours later, the cells were observed and photographed at a reproducible location.
# [8] = tested on: human SMC from fibroproliferative vascular lesions; assay: Cell proliferation: DNA synthesis (3H-thymidine) in SMC; assay type: cell-based
# Method: The effect of the structural hydroxypyridone analog kojic acid is shown for comparison. Serum-stimulated DNA synthesis in SMC was determined by a 4-hour pulse of ^3 H-thymidine given 20 hours after treatment with L-mimosine and kojic acid (filled symbols). Identically treated, but unlabeled cells cultured in parallel, at that time point were washed and returned to fresh culture media without inhibitor for an additional 20 hours prior to otherwise identical labeling with ^3 H-thymidine (open symbols). Data is expressed as ^3 H-thymidine incorporated per cell to compensate for the reduced cell number in the wake of inhibitor treatment.
# Inhibition of DNA synthesis was examined by semiautomated methods. SMC were plated at 1×10^4 cells/well in 96-well microtiter plates at least 24 hours prior to the assay. Agents were introduced into normal serum-containing growth media for 20 hours before the cells were pulsed with ^3 H-thymidine (1 μCi/ml) for 4 hours. Cells were collected with a cell harvester and the DNA-incorporated label determined by scintillation counting (Betaplate; Wallac, Inc., Gaithersburg, Md.) (n=6 per point).
# [9] = target: T3, purified rat deoxyhypusyl hydroxylase (Rattus norvegicus, UniProt Q5PPJ4); assay: DOHH assay, purified rat deoxyhypusyl hydroxylase, conversion of deoxyhypusine-containing eIF-5A precursor; assay type: biochemical; conditions: unhydroxylated eIF-5A precursor, purified rat enzyme
# T3 construct: probably testis; substrate unhydroxylated eIF-5A precursor
# T3 sequence (Q5PPJ4 1-302): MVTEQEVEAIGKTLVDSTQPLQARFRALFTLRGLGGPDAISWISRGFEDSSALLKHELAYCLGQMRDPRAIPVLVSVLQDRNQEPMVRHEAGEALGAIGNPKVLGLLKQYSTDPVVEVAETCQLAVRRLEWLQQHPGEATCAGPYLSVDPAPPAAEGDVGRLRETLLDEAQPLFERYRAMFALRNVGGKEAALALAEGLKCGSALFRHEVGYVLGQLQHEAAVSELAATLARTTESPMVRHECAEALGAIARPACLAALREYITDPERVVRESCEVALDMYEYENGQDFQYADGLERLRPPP
# Method: The inhibiting effect of a model peptidomimetic, suitable to serve as carrier for hydroxypyridone warheads, on the activity of the purified eIF-5A-hydroxylating enzyme was studied in a cell-free system.
# Enzyme activity was purified and determined as described by Abbruzzese et al., J. Biol. Chem. 261:3085-9 (1986), which is hereby incorporated by reference. Briefly, the enzyme is offered labeled deoxyhypusine-containingeIF-5A precursor. Following standard incubation conditions, the conversion into hypusine residues is measured by chromatographic amino acid separation after protein hydrolysis.
# [10] = tested on: certain human cells; conditions: Ekblom et al.; cited from earlier work
# T2 sequence (P13674 18-534): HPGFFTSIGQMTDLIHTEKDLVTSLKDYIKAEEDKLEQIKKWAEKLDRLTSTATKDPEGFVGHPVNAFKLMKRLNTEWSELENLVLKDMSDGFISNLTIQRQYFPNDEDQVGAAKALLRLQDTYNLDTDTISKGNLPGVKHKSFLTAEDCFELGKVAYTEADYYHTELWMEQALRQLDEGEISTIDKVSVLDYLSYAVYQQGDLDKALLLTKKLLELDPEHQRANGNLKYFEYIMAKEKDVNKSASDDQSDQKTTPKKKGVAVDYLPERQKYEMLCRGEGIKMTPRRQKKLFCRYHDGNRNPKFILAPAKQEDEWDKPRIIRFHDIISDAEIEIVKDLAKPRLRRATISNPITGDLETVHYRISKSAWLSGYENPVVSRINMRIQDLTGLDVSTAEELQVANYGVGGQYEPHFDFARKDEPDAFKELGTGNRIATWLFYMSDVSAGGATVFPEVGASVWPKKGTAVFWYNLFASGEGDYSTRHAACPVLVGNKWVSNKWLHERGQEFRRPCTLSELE
# T2 sequence (P07237 18-508 partner): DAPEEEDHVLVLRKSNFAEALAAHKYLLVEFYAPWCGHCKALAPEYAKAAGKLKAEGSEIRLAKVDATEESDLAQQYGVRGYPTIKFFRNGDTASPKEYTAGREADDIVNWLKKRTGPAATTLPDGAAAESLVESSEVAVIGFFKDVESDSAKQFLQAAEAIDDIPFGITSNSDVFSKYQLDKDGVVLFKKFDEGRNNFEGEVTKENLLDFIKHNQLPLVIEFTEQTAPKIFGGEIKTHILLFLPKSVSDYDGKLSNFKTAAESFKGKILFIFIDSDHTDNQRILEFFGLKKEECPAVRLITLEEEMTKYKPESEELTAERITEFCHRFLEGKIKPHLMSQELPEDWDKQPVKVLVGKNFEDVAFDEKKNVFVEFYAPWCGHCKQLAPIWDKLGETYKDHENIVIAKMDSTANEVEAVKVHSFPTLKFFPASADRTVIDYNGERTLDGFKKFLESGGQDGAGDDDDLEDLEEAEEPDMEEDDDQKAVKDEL
compound,measurement,setting,value
"O=c1cc(CO)occ1O [kojic acid, reference compound]",inhibition of protein hydroxylases,[1],does not inhibit protein hydroxylases
same,inhibition of endothelial cell proliferation,[2]; FIG. 9,does not inhibit EC proliferation
CCOCn1ccc(=O)c(O)c1C [HK-15],Deoxyhypusyl hydroxylase ID50 (cellular),[3],60 µM
same,Prolyl 4-hydroxylase ID50 (purified),[4],210 µM
CCOC(=O)[C@@H](N)Cn1ccc(=O)c(O)c1 [--ethyl ester],Prolyl 4-hydroxylase ID50 (purified),[4],145 µM
CC(C)(CO)[C@@H](O)C(=O)NCCC(=O)NCCSSCCNC(=O)CCNC(=O)[C@H](O)C(C)(C)CO [pantethine],effect on increased prolyl hydroxylase activity in liver with hepatic fibrosis,[5],inhibited an increased prolyl hydroxylase activity
CCn1ccc(=O)c(O)c1C [HK-26],Deoxyhypusyl hydroxylase ID50 (cellular),[3],58 µM
same,Prolyl 4-hydroxylase ID50 (purified),[4],130 µM
CCc1c(O)c(=O)ccn1CC [HK-2],Deoxyhypusyl hydroxylase ID50 (cellular),[3],50 µM
same,Prolyl 4-hydroxylase ID50 (purified),[4],145 µM
"Cc1c(O)c(=O)ccn1C [HK-1, 1,2-dimethyl-3-hydroxypyrid-4-one]",extraction by the liver from the portal blood,[6],rapidly extracted by the liver from the portal blood
same,appearance / viability of treated HUVEC on Matrigel,[7]; FIG. 10B,remain healthy and viable in appearance
same,formation of capillary-like tubes on Matrigel,"[7]; HUVEC, FIG. 10, listed as deferiprone","blocks the formation of tubular structures; also recorded: block the formation of capillary-like structures; also recorded: blocks capillary formation; also recorded: attach and spread, but do not form capillary-like tubes"
same,inhibition of deoxyhypusyl hydroxylase,"[3]; FIG. 3, assayed in vitro",directly inhibit
same,Deoxyhypusyl hydroxylase ID50 (cellular),[3],90 µM
same,non-specific or toxic effects,"[8]; FIGS. 6, 7",did not result from non-specific or toxic effects
same,"reversibility of suppressive effects (collagen secretion, onset of DNA synthesis)",[8]; upon removal of compound,reversible
same,inhibition of purified human prolyl 4-hydroxylase,"[4]; cell-free system, FIG. 1",directly inhibit
same,Prolyl 4-hydroxylase ID50 (purified),[4],133 µM
same,inhibition of endothelial cell proliferation,"[2]; FIG. 9, listed as deferiprone",blocks the proliferation; also recorded: inhibit endothelial cell proliferation
NC(CO)C1CCC(=O)NC(CO)C(=O)N(C(Cc2ccccc2)C(=O)O)NC1=O (stereo not drawn) [Mimetic A],deoxyhypusine-to-hypusine conversion / inhibition of purified deoxyhypusyl hydroxylase,[9],only weakly inhibitory
same,deoxyhypusine-to-hypusine conversion / inhibition of purified deoxyhypusyl hydroxylase,[9]; listed as mimetic A,suppressed
C=CCn1ccc(=O)c(O)c1C [HK-16],Deoxyhypusyl hydroxylase ID50 (cellular),[3],50 µM
same,Prolyl 4-hydroxylase ID50 (purified),[4],150 µM
CCCn1ccc(=O)c(O)c1C [HK-27],Deoxyhypusyl hydroxylase ID50 (cellular),[3],50 µM
same,Prolyl 4-hydroxylase ID50 (purified),[4],155 µM
Cc1ncc(CO)c(C=NNC(=O)c2ccncc2)c1O [pyridoxal isonicotinyl hydrazone],effect on proliferation of certain human cells,[10],stimulates the proliferation
